Source: US20250215029A1 (Recludix Pharma, Inc., priority 2022, published 2025)
pIC50: −log10 of the molar value. Like-named read-outs stand apart in the source and are kept apart here.

Legend:
pY705-STAT3 in PBMC = molecular target: T1, pY705-STAT3 in PBMC (Homo sapiens, UniProt P40763); assay: MSD-pSTAT-PBMC Assay (pSTAT3, IL-6 stimulated); format: cell-based; details: PBMC, compound 3 hrs, then 10 ng/mL IL-6 for 10 min
T1 construct: Cryopreserved Peripheral Blood Mononuclear Cells (PBMC) are from AllCells; host or cells: cryopreserved PBMC
Summary of the method: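 PBMC (human, cryopreserved, overnight recovery) + cpd 3 hrs → IL-6 10 ng/mL (STAT3) or IL-4 1 ng/mL (STAT6) ×10 min → lysis with protease/phosphatase inhibitors → MSD capture/phospho detection. IC50, variable slope, DMSO-normalized.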

pY641-STAT6 in PBMC = molecular target: T2, pY641-STAT6 in PBMC (Homo sapiens, UniProt P42226); assay: MSD-pSTAT-PBMC Assay (pSTAT6, IL-4 stimulated); format: cell-based; details: compound 3 hrs, then 1 ng/mL IL-4 for 10 min
T2 construct: Cryopreserved Peripheral Blood Mononuclear Cells (PBMC) are from AllCells; host or cells: cryopreserved PBMC
T2 sequence (P42226 1-847): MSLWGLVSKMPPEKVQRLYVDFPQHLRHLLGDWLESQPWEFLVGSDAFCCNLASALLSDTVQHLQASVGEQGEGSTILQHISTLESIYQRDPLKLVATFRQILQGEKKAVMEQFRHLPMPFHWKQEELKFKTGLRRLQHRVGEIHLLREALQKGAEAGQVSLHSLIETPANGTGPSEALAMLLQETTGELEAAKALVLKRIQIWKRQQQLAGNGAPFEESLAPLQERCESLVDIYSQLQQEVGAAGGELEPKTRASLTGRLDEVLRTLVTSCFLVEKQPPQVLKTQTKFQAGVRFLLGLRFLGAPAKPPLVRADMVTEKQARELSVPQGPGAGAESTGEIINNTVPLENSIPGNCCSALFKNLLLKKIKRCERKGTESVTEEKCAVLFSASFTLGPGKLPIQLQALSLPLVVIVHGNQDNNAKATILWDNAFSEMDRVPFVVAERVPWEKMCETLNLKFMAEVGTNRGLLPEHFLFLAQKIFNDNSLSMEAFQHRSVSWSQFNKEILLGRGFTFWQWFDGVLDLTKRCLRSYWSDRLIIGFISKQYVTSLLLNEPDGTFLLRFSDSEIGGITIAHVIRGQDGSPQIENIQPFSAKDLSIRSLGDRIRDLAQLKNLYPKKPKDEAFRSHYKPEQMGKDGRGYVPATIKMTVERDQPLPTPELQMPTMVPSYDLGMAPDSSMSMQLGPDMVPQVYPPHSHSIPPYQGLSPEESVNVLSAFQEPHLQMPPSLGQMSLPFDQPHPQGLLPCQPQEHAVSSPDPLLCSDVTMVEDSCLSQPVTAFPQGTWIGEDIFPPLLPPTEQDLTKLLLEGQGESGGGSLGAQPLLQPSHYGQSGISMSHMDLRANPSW
Summary of the method: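 MSD electrochemiluminescence read-out: total STAT captured, probed with anti-pY641-STAT6 or anti-pY705-STAT3. Human PBMC, 3 h compound pretreatment, 10 min stimulation (IL-4 1 ng/mL or IL-6 10 ng/mL). Unstimulated signal subtracted, DMSO-normalized, variable-slope IC50.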

[1] = PBMC, Table 1114, read-out: pSTAT6

T1 sequence (P40763 whole entry): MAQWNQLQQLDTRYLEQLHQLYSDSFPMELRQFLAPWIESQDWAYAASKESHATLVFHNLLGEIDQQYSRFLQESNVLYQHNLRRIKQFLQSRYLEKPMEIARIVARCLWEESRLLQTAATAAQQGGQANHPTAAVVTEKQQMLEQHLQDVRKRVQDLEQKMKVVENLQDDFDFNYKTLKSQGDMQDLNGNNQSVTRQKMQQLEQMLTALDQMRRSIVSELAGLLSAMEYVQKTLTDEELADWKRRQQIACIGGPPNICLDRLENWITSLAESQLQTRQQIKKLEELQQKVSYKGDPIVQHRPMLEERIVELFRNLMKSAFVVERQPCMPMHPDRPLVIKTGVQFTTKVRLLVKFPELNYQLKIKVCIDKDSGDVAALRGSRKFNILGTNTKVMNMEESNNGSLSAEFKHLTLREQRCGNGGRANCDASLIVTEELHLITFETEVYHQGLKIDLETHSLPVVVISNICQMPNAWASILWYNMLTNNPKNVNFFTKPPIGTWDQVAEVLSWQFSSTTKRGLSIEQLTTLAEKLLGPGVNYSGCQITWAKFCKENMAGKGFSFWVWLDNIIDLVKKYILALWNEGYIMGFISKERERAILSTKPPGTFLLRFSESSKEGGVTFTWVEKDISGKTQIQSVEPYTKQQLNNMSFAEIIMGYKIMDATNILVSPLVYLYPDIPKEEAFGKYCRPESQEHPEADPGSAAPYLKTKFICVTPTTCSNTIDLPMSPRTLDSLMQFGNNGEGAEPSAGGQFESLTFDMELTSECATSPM

Compound | pIC50 (pY705-STAT3 in PBMC; Table 1114, read-out: pSTAT3) | pIC50 (pY641-STAT6 in PBMC; [1]) | pIC50 (pY705-STAT3 in PBMC; Table 115, read-out: STAT3) | other results
CC(C)(C)C(=O)OCOP(=O)(OCOC(=O)C(C)(C)C)C(F)(F)c1ccc2sc(C(=O)N[C@@]3(C)CCCC[C@H]4CC[C@@H](C(=O)N5CC(C(=O)N6CCOCC6)C5)N4C3=O)cc2c1 [Compound 186, (((difluoro(2-(((3S,6S, 10aS)-6-methyl-3-(3-(morpholine-4-carbonyl)azetidine-1-carbonyl)-5-oxodeca-hydropyrrolo [1,2-a]azocin-6-yl)carbamoyl)benzo[b]thiophen-5-yl)methyl)phosphoryl)bis (oxy))bis (methylene) bis(2,2-dimethyl-propanoate)] | > 7.00 | < 5.52 | – | –
CC(C)(C)C(=O)OCOP(=O)(OCOC(=O)C(C)(C)C)C(F)(F)c1ccc2sc(C(=O)N[C@H]3CCC[C@H]4CC[C@@H](C(=O)N5CC(C(=O)N6CCOCC6)C5)N4C3=O)cc2c1 [Compound 187, (((difluoro(2-(((3S,6S,9aS)-3-(3-(morpholine-4-carbonyl)azetidine-1-carbonyl)-5-oxooctahydro-1H-pyrrolo[1,2-a]azepin-6-yl)carbamoyl)benzo[b]thiophen-5-yl)methyl)phosphoryl)bis (oxy))bis (methylene) bis(2,2-dimethyl-propanoate)] | > 7.00 | 5.52 to 6.00 | – | –
CC(C)(C)C(=O)OCOP(=O)(OCOC(=O)C(C)(C)C)C(F)(F)c1ccc2sc(C(=O)N[C@H]3CCC[C@H]4CC[C@@H](C(=O)N5CC(c6ccccn6)C5)N4C3=O)cc2c1 [Compound 188, (((difluoro(2-(((3S,6S,9aS)-5-oxo-3-(3-(pyridin-2-yl)azetidine-1-carbonyl)octahydro-1H-pyrrolo[1,2-a]azepin-6-yl)carbamoyl)benzo[b]thiophen-5-yl)methyl)phosphoryl)bis (oxy))bis (methylene) bis(2,2-dimethyl-propanoate)] | > 7.00 | 6.00 to 7.00 | – | –
CC(C)(C)C(=O)OCOP(=O)(OCOC(=O)C(C)(C)C)C(F)(F)c1ccc2sc(C(=O)N[C@H]3CCC[C@H]4CC[C@@H](C(=O)N5CC(c6cccnc6)C5)N4C3=O)cc2c1 [Compound 189, (((difluoro(2-(((3S,6S,9aS)-5-oxo-3-(3-(pyridin-3-yl)azetidine-1-carbonyl)octahydro-1H-pyrrolo[1,2-a]azepin-6-yl)carbamoyl)benzo[b]thiophen-5-yl)methyl)phosphoryl)bis (oxy))bis (methylene) bis(2,2-dimethyl-propanoate)] | > 7.00 | < 5.52 | – | –
CC(C)(C)C(=O)OCOP(=O)(OCOC(=O)C(C)(C)C)C(F)(F)c1ccc2sc(C(=O)N[C@H]3CCCC[C@H]4CC[C@@H](C(=O)N5CC6(CN(C(=O)Cc7ccccc7)C6)C5)N4C3=O)cc2c1 [Compound 191, (((difluoro(2-(((3S,6S,10aS)-5-oxo-3-(6-(2-phenylacetyl)-2,6-diazaspiro[3. 3]heptane-2-carbonyl)decahydro-pyrrolo [1,2-a]azocin-6-yl)carbamoyl)benzo[b]thiophen-5-yl)methyl)phosphoryl)bis (oxy))bis (methylene) bis(2,2-dimethyl-propanoate)] | > 7.00 | 6.00 to 7.00 | – | –
CC(C)(C)C(=O)OCOP(=O)(OCOC(=O)C(C)(C)C)C(F)(F)c1ccc2sc(C(=O)N[C@H]3CCCC[C@H]4CC[C@@H](C(=O)N5CCN(C(=O)c6cn[nH]c6)CC5)N4C3=O)cc2c1 [Compound 192, ((((2-(((3S,6S,10aS)-3-(4-(1H-pyrazole-4-carbonyl)piperazine-1-carbonyl)-5-oxodecahydro-pyrrolo[1,2-a]azocin-6-yl)carbamoyl)benzo[b]thiophen-5-yl)difluoro-methyl)phos-phoryl)bis(oxy)) bis(methylene) bis(2,2-dimethyl-propanoate)] | 6.00 to 7.00 | 5.52 to 6.00 | – | –
CC(C)OC(=O)[C@H](C)NP(=O)(Cc1ccc2sc(C(=O)N[C@H]3CCC[C@H]4CC[C@@H](C(=O)N5CC(c6cccnc6)C5)N4C3=O)cc2c1)Oc1ccccc1 (stereo partly drawn) [Compound 195, isopropyl (((2-(((3S,6S,9aS)-5-oxo-3-(3-(pyridin-3-yl)azetidine-1-carbonyl)octa-hydro-1H-pyrrolo[1,2-a]azepin-6-yl)carbamoyl)benzo[b]thiophen-5-yl)methyl) (phenoxy)phosphoryl)-L-alaninate] | 6.00 to 7.00 | – | – | pIC50 (pY641-STAT6 in PBMC; pSTAT6, PBMC, Table 1114): < 5.52
CC(C)OC(=O)[C@H](C)NP(=O)(Oc1ccccc1)C(F)c1ccc2sc(C(=O)N[C@H]3CCC[C@H]4CC[C@@H](C(=O)N5CC(c6cccnc6)C5)N4C3=O)cc2c1 (stereo partly drawn) [Compound 196, isopropyl ((fluoro(2-(((3S,6S,9aS)-5-oxo-3-(3-(pyridin-3-yl)azetidine-1-carbonyl)octahydro-1H-pyrrolo[1,2-a]azepin-6-yl)carbamoyl)benzo[b]thiophen-5-yl)methyl) (phenoxy)phosphoryl)-L-alaninate] | 6.00 to 7.00 | – | – | pIC50 (pY641-STAT6 in PBMC; pSTAT6, PBMC, Table 1114): < 5.52
CC(C)(CO)C(=O)SCCOP(=O)(Oc1ccccc1)C(F)(F)c1ccc2sc(C(=O)N[C@H]3CCC[C@H]4CC[C@@H](C(=O)N5CC(c6cccnc6)C5)N4C3=O)cc2c1 (stereo partly drawn) [Compound 201, S-(2-(((difluoro(2-(((3S,6S,9aS)-5-oxo-3-(3-(pyridin-3-yl)azetidine-1-carbonyl)octahydro-1H-pyrrolo[1,2-a]azepin-6-yl)carbamoyl)benzo[b]thiophen-5-yl)methyl) (phenoxy)phosphoryl)oxy)ethyl) 3-hydroxy-2,2-dimethyl-propanethioate] | 6.00 to 7.00 | – | – | pIC50 (pY641-STAT6 in PBMC; pSTAT6, PBMC, Table 1114): < 5.52
CC(C)(C)C(=O)OCOP(=O)(OCOC(=O)C(C)(C)C)C(F)(F)c1ccc2sc(C(=O)N[C@H]3CCCC4CC[C@@H](C(=O)N5CC(N6CCOCC6)C5)N4C3=O)cc2c1 (stereo partly drawn) [Compound 249, (((difluoro(2-(((3S,6S)-3-(3-morpholinoazetidine-1-carbonyl)-5-oxooctahydro-1H-pyrrolo[1,2-a]azepin-6-yl)carbamoyl)benzo [b]thiophen-5-yl)methyl)phosphoryl)bis(oxy))bis (methylene) bis(2,2-dimethylpropanoate)] | – | – | > 7.00 | pIC50 (pY641-STAT6 in PBMC; PBMC, Table 115, read-out: STAT6): 6.00 to 7.00
CCCOC(=O)[C@H](C)NP(=O)(Cc1ccc2sc(C(=O)N[C@H]3CCC[C@H]4CC[C@@H](C(=O)N5CCC(c6cccnc6)C5)N4C3=O)cc2c1)Oc1ccccc1 (stereo partly drawn) [Compound 252, propyl (((2-(((3S,6S,9aS)-5-oxo-3-(3-(pyridin-3-yl)pyrrolidine-1-carbonyl)octahydro-1H-pyrrolo[1,2-a]azepin-6-yl)carbamoyl)benzo [b]thiophen-5-yl)methyl)(phenoxy)phosphoryl)-L-alaninate] | – | – | 5.52 to 6.00 | pIC50 (pY641-STAT6 in PBMC; STAT6, PBMC, Table 115): 6.00 to 7.00
CCCOC(=O)[C@H](C)NP(=O)(Cc1ccc2sc(C(=O)N[C@H]3CCCC[C@H]4CC[C@@H](C(=O)N5CCC(c6cccnc6)C5)N4C3=O)cc2c1)Oc1ccccc1 (stereo partly drawn) [Compound 253, propyl (((2-(((3S,6S,10aS)-5-oxo-3-(3-(pyridin-3-yl)pyrrolidine-1-carbonyl)decahydropyrrolo[1,2-a]azocin-6-yl)carbamoyl)benzo [b]thiophen-5-yl)methyl)(phenoxy)phosphoryl)-L-alaninate] | – | – | < 5.52 | pIC50 (pY641-STAT6 in PBMC; STAT6, PBMC, Table 115): 6.00 to 7.00
CCCOC(=O)[C@H](C)NP(=O)(Cc1ccc2sc(C(=O)N[C@H]3CCC[C@H]4CC[C@@H](C(=O)N5CC(c6cnccc6OC)C5)N4C3=O)cc2c1)Oc1ccccc1 (stereo partly drawn) [Compound 255, propyl (((2-(((3S,6S,9aS)-3-(3-(4-methoxypyridin-3-yl)azetidine-1-carbonyl)-5-oxooctahydro-1H-pyrrolo[1,2-a]azepin-6-yl)carbamoyl)benzo [b]thiophen-5-yl)methyl)(phenoxy)phosphoryl)-L-alaninate] | – | – | > 7.00 | pIC50 (pY641-STAT6 in PBMC; STAT6, PBMC, Table 115): < 5.52
